Consider five molecules from PMC8512631, “Structural Basis for PPARs Activation by The Dual PPARα/γ Agonist Sanguinarine: A Unique Mode of Ligand Recognition” (Molecules, 2021).

Residue numbers refer to the chain shown, from its start. No end group written: not given here. *: point of attachment. Biotin = O=C1N[C@H]2[C@H](CS[C@H]2CCCCC(=O)*)N1

Experiment [1] deals with T1, PPARα (Homo sapiens, UniProt Q07869).
T1 construct: gene PPARA; LBD
The experiment is described as follows: thermal shift assay of LBD with SRC1 peptide; GAL4 reporter at […]. The experiment is classed as binding.

For experiment [2], the target named is T2, PPARδ (Homo sapiens, UniProt Q03181, H244A).
T2 construct: gene PPARD; full-length
T2 sequence (Q03181 1-441 H244A): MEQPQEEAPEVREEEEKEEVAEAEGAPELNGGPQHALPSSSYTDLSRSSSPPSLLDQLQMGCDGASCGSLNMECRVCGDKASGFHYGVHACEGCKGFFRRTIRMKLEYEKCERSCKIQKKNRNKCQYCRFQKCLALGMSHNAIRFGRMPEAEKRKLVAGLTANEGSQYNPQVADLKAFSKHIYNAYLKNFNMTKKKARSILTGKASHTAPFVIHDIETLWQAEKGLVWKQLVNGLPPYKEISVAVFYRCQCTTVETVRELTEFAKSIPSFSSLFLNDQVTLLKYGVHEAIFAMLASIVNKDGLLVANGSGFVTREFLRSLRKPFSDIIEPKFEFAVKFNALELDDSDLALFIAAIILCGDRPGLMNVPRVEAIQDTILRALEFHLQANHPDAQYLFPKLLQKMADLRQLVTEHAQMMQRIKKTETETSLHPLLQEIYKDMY
The experiment can be described thus: PPRE luciferase reporter in […] cells, […]. It counts as cell-based.

Experiment [3] concerns the target T3, PPARδ (Homo sapiens, UniProt Q03181, R248A).
T3 construct: gene PPARD; full-length
T3 sequence (Q03181 1-441 R248A): T2 sequence (Q03181 1-441 H244A) with A244H, R248A
The experiment is described as follows: PPRE luciferase reporter in […] cells, […]. The experiment is classed as cell-based.

Experiment [4] addresses T4, human PPARα ligand-binding domain (residues 196-468) (human, UniProt Q07869-1 196-468).
T4 construct: Expressed from pET24a; The methods describe only this PPARα-LBD construct; also called PPARα–LBD; source: E. coli BL21 (DE3), purified (Ni HiTrap, gel filtration Superdex 200); not shown: His6, N-terminal, kept
T4 sequence (looked up): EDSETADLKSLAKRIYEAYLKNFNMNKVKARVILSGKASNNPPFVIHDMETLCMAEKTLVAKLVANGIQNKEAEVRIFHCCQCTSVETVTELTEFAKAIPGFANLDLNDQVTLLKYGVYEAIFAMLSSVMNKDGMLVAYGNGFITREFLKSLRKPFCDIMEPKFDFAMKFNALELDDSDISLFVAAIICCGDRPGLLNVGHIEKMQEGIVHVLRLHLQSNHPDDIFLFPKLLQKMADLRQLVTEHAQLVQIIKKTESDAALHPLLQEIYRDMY
The experiment can be described thus: AlphaScreen or HTRF; approximately 20–40 nM PPAR LBDs on nickel chelate acceptor beads, 20 nM biotinylated co-factor peptides on streptavidin donor beads; 50 mM MOPS, 50 mM NaF, 0.05 mM CHAPS, 0.1 mg/mL BSA, pH 7.4; in response to 1 μM sanguinarine. The following applies: both partners purified.

T1 sequence (Q15788 2-1441 partner, one chain of several): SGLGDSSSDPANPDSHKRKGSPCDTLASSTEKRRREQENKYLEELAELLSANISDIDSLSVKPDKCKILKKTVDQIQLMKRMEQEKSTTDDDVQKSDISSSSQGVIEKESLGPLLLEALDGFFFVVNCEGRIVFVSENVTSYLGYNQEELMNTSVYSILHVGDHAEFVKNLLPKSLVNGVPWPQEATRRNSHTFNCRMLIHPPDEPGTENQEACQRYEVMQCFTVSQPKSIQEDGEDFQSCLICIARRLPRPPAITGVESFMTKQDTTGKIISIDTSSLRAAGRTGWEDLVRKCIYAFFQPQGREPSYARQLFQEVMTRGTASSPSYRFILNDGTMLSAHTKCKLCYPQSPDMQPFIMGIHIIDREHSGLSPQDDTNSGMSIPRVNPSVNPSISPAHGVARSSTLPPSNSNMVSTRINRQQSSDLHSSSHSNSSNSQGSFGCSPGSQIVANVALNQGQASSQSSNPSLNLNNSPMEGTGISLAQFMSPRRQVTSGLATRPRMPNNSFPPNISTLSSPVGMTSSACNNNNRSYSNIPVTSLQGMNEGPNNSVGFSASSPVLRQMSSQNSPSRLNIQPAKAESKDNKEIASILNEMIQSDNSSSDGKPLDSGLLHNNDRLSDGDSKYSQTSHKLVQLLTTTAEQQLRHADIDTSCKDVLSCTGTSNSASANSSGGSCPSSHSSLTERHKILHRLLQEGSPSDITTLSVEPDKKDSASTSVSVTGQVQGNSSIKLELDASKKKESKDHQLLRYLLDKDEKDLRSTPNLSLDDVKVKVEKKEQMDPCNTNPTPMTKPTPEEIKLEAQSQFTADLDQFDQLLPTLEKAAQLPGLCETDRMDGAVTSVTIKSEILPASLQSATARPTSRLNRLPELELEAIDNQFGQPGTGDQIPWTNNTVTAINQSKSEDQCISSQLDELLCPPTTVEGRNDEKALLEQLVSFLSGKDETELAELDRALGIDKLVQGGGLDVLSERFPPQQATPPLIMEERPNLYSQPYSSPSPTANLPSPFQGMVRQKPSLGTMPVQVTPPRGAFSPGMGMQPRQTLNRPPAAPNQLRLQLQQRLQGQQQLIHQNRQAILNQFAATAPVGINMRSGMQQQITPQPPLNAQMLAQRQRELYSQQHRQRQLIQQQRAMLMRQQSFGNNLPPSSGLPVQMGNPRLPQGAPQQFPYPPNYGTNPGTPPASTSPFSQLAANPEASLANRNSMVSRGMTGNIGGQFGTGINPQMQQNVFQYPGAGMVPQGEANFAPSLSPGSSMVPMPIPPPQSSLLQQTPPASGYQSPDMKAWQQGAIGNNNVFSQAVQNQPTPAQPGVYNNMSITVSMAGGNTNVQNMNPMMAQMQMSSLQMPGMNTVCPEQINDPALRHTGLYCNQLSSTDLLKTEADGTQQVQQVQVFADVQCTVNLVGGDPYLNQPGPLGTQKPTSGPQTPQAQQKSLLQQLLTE

Take `Cc1nc(-c2ccc(C(F)(F)F)cc2)sc1C(=O)NCc1ccc(OC(C)(C)C(=O)O)cc1` [GW590735]: the “thermal shift assay of LBD with SRC1 peptide; GAL4 reporter at 1 μM” value in experiment [1] was “thermal shift assay showed that SRC1 increased the thermal stability of sanguinarine–PPARα, compared with GW735–PPARα”.

As to `C[n+]1cc2c3c(ccc2c2ccc4cc5c(cc4c21)OCO5)OCO3` [sanguinarine], the “PPRE luciferase reporter in 293T cells, 1 μM” value was “the H244A mutation enables PPARδ to respond to sanguinarine treatment” in experiment [2] and “sanguinarine activated the transcriptional activity of PPARδ–R248A mutation, in contrast to wild-type PPARδ” in experiment [3].

Take Biotin-QEPVSPKKKENALLRYLLDKDDTKD [biotinylated SRC2-3 co-activator LXXLL motif peptide]: in experiment [4], the binding result is given as “binds”.

For Biotin-PDAASKHKQLSELLRGGSG (the parent protein is in doubt) [biotinylated SRC3-3 co-activator LXXLL motif peptide], in experiment [4], the binding result is on record as “binds”.

As to Biotin-SPSSHSSLTERHKILHRLLQEGSP [biotinylated SRC1-2 co-activator LXXLL motif peptide], in experiment [4], the binding result is “binds”.
